# According to patent US10662203B2, “Pyrido[2,3-b]indole compounds for the treatment and prophylaxis of bacterial infection” (Hoffmann-La Roche Inc., priority 2017, dated 2020):
# Experiments:
# [1] = Cytotoxicity assay (HepG2, CellTiter-Blue cell viability); assay type: cell-based; settings: human; HepG2 cells, 3 days treatment; "*": the detection limit; read-out: CC50
# Experimental: The cytotoxicity of compounds of present invention was assessed by HepG2 assay. HepG2 cells (ATCC HB-8065™) were seeded into 96-well plates (1.2×10^4 cells per well) and treated with compounds for 3 days, cell viability was measured at day 3 post compound treatment using the CellTiter-Blue® Cell Viability Assay (Promega, Cat. No. G8082). 20 μL of Cell titer blue buffer were added to each well of the cells, which were incubated for 3 hours at 37° C., and the fluorescence value was measured by a plate reader (Molecular Device SpectraMax M2). The CC50 value of each compound is plotted with GraphPad Prism using four parameter logistic equation.
# S. aureus (ATCC29213) = assay: 50% growth inhibitory concentration (IC50) determination assay; assay type: cell-based; settings: Staphylococcus aureus, Iso-Sensitest broth, 0.098 = detection limit
# Method in brief: (§1)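 Each strain, inoculated at ~5×10^5 CFU/mL in Iso-Sensitest broth, faces a two-fold compound series spanning 50 to 0.097 μM final concentration. Incubation proceeds at 35±2° C, and cell growth is tracked by absorbance at λ=600 nm every 20 minutes over 16 h.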
# [2] = tested on: K. pneumoniae (ATCC10031); assay: as above; assay type: cell-based; settings: Klebsiella pneumoniae, Iso-Sensitest broth, 0.098 = detection limit
# Method in brief: as §1
# A. baumannii (ATCC17978) = assay: as above; assay type: cell-based; settings: Acinetobacter baumannii, ATCC17978, A. baumannii ATCC17978; Iso-Sensitest broth; 0.098 = detection limit
# Method in brief: as §1
# [3] = Lyophilisation solubility assay (LYSA); assay type: physicochemical; settings: phosphate buffer, pH 6.5, aqueous buffer, thermodynamic from solid, 0.05 M phosphate buffer, HPLC-UV
# Experimental: Lyophilisation Solubility Assay (LYSA):
# The solubility of compounds of present invention was assessed by LYSA assay. Samples were prepared in duplicate from 10 mM DMSO stock solutions (20 μL) diluted in 30 μL pure DMSO. After evaporation of DMSO with a centrifugal vacuum evaporator, the residue was dissolved in 0.05 M phosphate buffer (150 μL, pH 6.5), which was stirred for one hour and shook for two hours. After one night, the solution was filtered using a microtiter filter plate. Then the filtrate and its 1/10 dilution were analyzed by HPLC-UV.
SMILES,IC50 (S. aureus (ATCC29213)) [µM],IC50 [2] [µM],IC50 (A. baumannii (ATCC17978)) [µM],solubility thermodynamic [3] [µg/mL],CC50 at 3 days [1] [nM]
CNc1cc(F)c(F)c2c1[nH]c1ncc(-c3cnc4c(c3)c(=O)c(C(=O)O)cn4CC3COCCN3)c(N3CCOCC3)c12 (stereo not shown) [Example 1.31],,,,,49000
CNc1cc(F)c(F)c2c1[nH]c1ncc(-c3cnc4c(c3)c(=O)c(C(=O)O)cn4CC3CNCCO3)c(N3CCOCC3)c12 (stereo not shown) [Example 1.42],,,,,> 100000
CNc1cc(F)cc2c1[nH]c1ncc(-c3cnc4c(c3)c(=O)c(C(=O)O)cn4C)c(N3CCC(O)(C(F)(F)F)C3)c12 (stereo not shown) [Example 1.25],,,,,62600
CNc1cc(F)cc2c1[nH]c1ncc(-c3cnc4c(c3)c(=O)c(C(=O)O)cn4CC3COCCN3)c(NC)c12 (stereo not shown) [Example 1.37],,,,,55500
CNc1cc(F)c(F)c2c1[nH]c1ncc(-c3cnc4c(c3)c(=O)c(C(=O)O)cn4C)c(N3CCC4(CN(C)C4)C3)c12 [Example 1.228],,,,,> 100000
CNc1cc(F)c(F)c2c1[nH]c1ncc(-c3cnc4c(c3)c(=O)c(C(=O)O)cn4CC3COCCN3)c(N(C)CCOC)c12 (stereo not shown) [Example 1.41],,,,,90200
CNc1c(Cl)c(F)cc2c1[nH]c1ncc(-c3cnc4c(c3)c(=O)c(C(=O)O)cn4C3CCNC3)c(N(C)C)c12 (stereo not shown) [Example 1.68],,,,,26500
CNc1cc(F)cc2c1[nH]c1ncc(-c3cnc4c(c3)c(=O)c(C(=O)O)cn4C3CCNC3)c(N3CCCC3)c12 (stereo not shown) [Example 1.259],< 0.098,< 0.098,0.533,17,
CCNn1cc(C(=O)O)c(=O)c2cc(-c3cnc4[nH]c5c(NC)cc(F)c(F)c5c4c3N3CC[C@@H](N(C)C)C3)cnc21 [Example 1.258],< 0.098,< 0.098,< 0.098,17,
CNc1cc(F)cc2c1[nH]c1ncc(-c3cnc4c(c3)c(=O)c(C(=O)O)cn4NCC(F)(F)F)c(N3CCC[C@H]3CN(C)C)c12 [Example 1.153],0.372,< 0.098,0.388,201,
CNc1cc(F)c(F)c2c1[nH]c1ncc(-c3cnc4c(c3)c(=O)c(C(=O)O)cn4C)c(N3C[C@H]4CCC[C@@H](N(C)C)[C@H]4C3)c12 [Example 1.175],< 0.098,< 0.098,0.277,113,
"CNc1cc(F)c(F)c2c1[nH]c1ncc(-c3cnc4c(c3)c(=O)c(C(=O)O)cn4C)c(N3C[C@@H](F)C[C@H]3CN(C)C)c12 [Example 7.01, 6-(4-((2S,4S)-2-((Dimethylamino)methyl)-4-fluoropyrrolidin-1-yl)-5,6-difluoro-8-(methylamino)-9H-pyrido[2,3-b]indol-3-yl)-1-methyl-4-oxo-1,4-dihydro-1,8-naphthyridine-3-carboxylic acid]",< 0.098,< 0.098,0.28,330,
CNc1cc(F)cc2c1[nH]c1ncc(-c3cnc4c(c3)c(=O)c(C(=O)O)cn4C)c(N3CCC(CN(C)CCOC)C3)c12 (stereo not shown) [Example 1.141],< 0.098,< 0.098,0.485,485,
CNc1cc(F)c(F)c2c1[nH]c1ncc(-c3cnc4c(c3)c(=O)c(C(=O)O)cn4C)c(N3CCCC(N(C)CCOC)C3)c12 (stereo not shown) [Example 1.197],< 0.098,< 0.098,0.245,407,
CNc1cc(F)c(F)c2c1[nH]c1ncc(-c3cnc4c(c3)c(=O)c(C(=O)O)cn4C)c(N3CC[C@H](CN(C)C)C3)c12 [Example 1.256],< 0.098,< 0.098,0.219,202,
CNc1cc(F)c(F)c2c1[nH]c1ncc(-c3cnc4c(c3)c(=O)c(C(=O)O)cn4NC)c(N3CCC(F)(CN(C)C)C3)c12 (stereo not shown) [Example 1.93],< 0.098,< 0.098,0.094,105,
CNc1cc(F)c(F)c2c1[nH]c1ncc(-c3cnc4c(c3)c(=O)c(C(=O)O)cn4C)c(N3CCCC(N(C)C)C3)c12 (stereo not shown) [Example 1.215],0.114,0.103,0.252,48,
CNc1cc(F)c(F)c2c1[nH]c1ncc(-c3cnc4c(c3)c(=O)c(C(=O)O)cn4C)c(N3CCC(N4CCCC4)CC3)c12 [Example 1.203],0.208,< 0.098,0.778,303,
CNc1cc(F)c(F)c2c1[nH]c1ncc(-c3cnc4c(c3)c(=O)c(C(=O)O)cn4NC)c(N3C[C@@H](O)[C@@H](N(C)C)C3)c12 [Example 1.224],0.183,< 0.098,0.621,570,
CNc1cc(F)c(F)c2c1[nH]c1ncc(-c3cnc4c(c3)c(=O)c(C(=O)O)cn4NC)c(N3CC4[C@@H](C3)OCCN4C)c12 (stereo partly shown) [Example 1.242],< 0.098,< 0.098,0.189,24,
CNc1cc(F)c(F)c2c1[nH]c1ncc(-c3cnc4c(c3)c(=O)c(C(=O)O)cn4C)c(N3CC[C@H]4CN(CCO)CC43)c12 (stereo partly shown) [Example 1.205],< 0.098,< 0.098,0.143,192,
CNc1cc(F)c(F)c2c1[nH]c1ncc(-c3cnc4c(c3)c(=O)c(C(=O)O)cn4C)c(N3CCC4(CCN4C)C3)c12 (stereo not shown) [Example 1.237],< 0.098,< 0.098,0.194,145,

# Second part, led by results:
IC50 (S. aureus (ATCC29213)) [µM],IC50 [2] [µM],IC50 (A. baumannii (ATCC17978)) [µM],solubility thermodynamic [3] [µg/mL],SMILES,CC50 at 3 days [1] [nM]
< 0.098,< 0.098,0.096,> 730,CNc1cc(F)cc2c1[nH]c1ncc(-c3cnc4c(c3)c(=O)c(C(=O)O)cn4C)c(N3CC[C@H]4CN(C)CC43)c12 (stereo partly shown) [Example 1.187],
< 0.098,< 0.098,0.066,241,CNc1cc(Cl)c(F)c2c1[nH]c1ncc(-c3cnc4c(c3)c(=O)c(C(=O)O)cn4NC)c(N3CC[C@H]4CN(C)CC43)c12 (stereo partly shown) [Example 1.266],
< 0.098,< 0.098,0.087,118,CNc1cc(F)cc2c1[nH]c1ncc(-c3cnc4c(c3)c(=O)c(C(=O)O)cn4NC)c(N3C[C@H]4CCN(C)[C@H]4C3)c12 [Example 3.17A],
< 0.098,< 0.098,0.115,112,CNc1cc(F)cc2c1[nH]c1ncc(-c3cnc4c(c3)c(=O)c(C(=O)O)cn4NC)c(N3CC4[C@H](CCCN4C)C3)c12 (stereo partly shown) [Example 1.111],
< 0.098,< 0.098,0.254,468,CNc1cc(F)cc2c1[nH]c1ncc(-c3cnc4c(c3)c(=O)c(C(=O)O)cn4NC)c(N3CCC4(C)CN(C)CC34)c12 (stereo not shown) [Example 1.273],
< 0.098,< 0.098,0.075,125,CNc1cc(F)cc2c1[nH]c1ncc(-c3cnc4c(c3)c(=O)c(C(=O)O)cn4NC)c(N3C[C@@H]4CCN(C)[C@@H]4C3)c12 [Example 3.17B],
< 0.098,< 0.098,0.295,366,"CNc1cc(F)c(F)c2c1[nH]c1ncc(-c3cnc4c(c3)c(=O)c(C(=O)O)cn4COC)c(N3CC[C@H]4CN(C)C[C@H]43)c12 (relative stereo) [Example 5.06, 6-[4-[cis-5-methyl-2,3,3a,4,6,6a-hexahydropyrrolo[2,3-c]pyrrol-1-yl]-5,6-difluoro-8-(methylamino)-9H-pyrido[2,3-b]indol-3-yl]-1-(methoxymethyl)-4-oxo-1,8-naphthyridine-3-carboxylic acid]",
< 0.098,< 0.098,0.074,71,CNc1cc(F)cc2c1[nH]c1ncc(-c3cnc4c(c3)c(=O)c(C(=O)O)cn4C)c(N3CC4[C@H](CCCN4C)C3)c12 (stereo partly shown) [Example 1.110],
< 0.098,< 0.098,0.072,104,CNc1cc(Cl)c(F)c2c1[nH]c1ncc(-c3cnc4c(c3)c(=O)c(C(=O)O)cn4C)c(N3CC[C@H]4CN(C)CC43)c12 (stereo partly shown) [Example 1.267],
0.712,0.403,0.961,151,CNc1cc(F)c(F)c2c1[nH]c1ncc(-c3cnc4c(c3)c(=O)c(C(=O)O)cn4C)c(N3CCC4CN(C)CCC43)c12 (stereo not shown) [Example 1.243],
< 0.098,< 0.098,0.267,159,CNc1cc(Cl)cc2c1[nH]c1ncc(-c3cnc4c(c3)c(=O)c(C(=O)O)cn4NC)c(N3CC[C@H]4CN(C)CC43)c12 (stereo partly shown) [Example 1.264],
< 0.098,< 0.098,0.148,247,CCNn1cc(C(=O)O)c(=O)c2cc(-c3cnc4[nH]c5c(NC)cc(F)cc5c4c3N3CC[C@H]4CN(C)CC43)cnc21 (stereo partly shown) [Example 1.290],
